Laboratory results as given in patent US10927398B2, “Compositions for CYP450 phenotyping using saliva samples” (Concordia University, Inc., priority 2015, dated 2021).
Values joined by “and” are separate entries in the source; they are usually repeats but may differ in a detail not shown here. Identical values can stand only once. Like-named read-outs stand apart in the source and are kept apart here.

Experiments:
CYP2D6 [1] = experiment: Saliva phenotyping with dextromethorphan probe (dextromethorphan/dextrorphan metabolic ratio); format: in vivo, human
Source text: 3. […] Record the time in your lab notebook.
1. […] Repeat with the other three saliva samples.
4. […] Repeat with the other three saliva samples.

[2] = cited from earlier work
[3] = cited from earlier work; remark: listed apart in the source
CYP2D6 [4] = conditions: Hou et al., saliva, cited from earlier work
plasma protein = conditions: cited from earlier work
CYP450 enzymes = conditions: cited from earlier work
CYP3A4 [5] = biological target: T1, CYP3A4 (Homo sapiens, UniProt P08684); set-up: endogenous in cells; host or cells: healthy volunteers, in vivo; saliva sampled; conditions: eplerenone; cited from earlier work
T1 sequence (P08684 whole entry): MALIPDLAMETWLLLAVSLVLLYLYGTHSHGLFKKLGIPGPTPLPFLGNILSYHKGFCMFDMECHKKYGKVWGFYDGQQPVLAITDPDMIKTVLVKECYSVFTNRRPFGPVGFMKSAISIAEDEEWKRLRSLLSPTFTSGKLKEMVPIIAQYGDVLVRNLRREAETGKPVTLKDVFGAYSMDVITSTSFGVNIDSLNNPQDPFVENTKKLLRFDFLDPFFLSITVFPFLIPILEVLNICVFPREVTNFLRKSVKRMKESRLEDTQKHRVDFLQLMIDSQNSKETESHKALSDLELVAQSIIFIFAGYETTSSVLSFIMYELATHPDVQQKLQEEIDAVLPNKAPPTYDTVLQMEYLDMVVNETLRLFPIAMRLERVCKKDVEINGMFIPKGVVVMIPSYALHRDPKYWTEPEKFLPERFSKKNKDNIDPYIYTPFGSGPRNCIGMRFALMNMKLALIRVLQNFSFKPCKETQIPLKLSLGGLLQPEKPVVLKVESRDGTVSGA

CYP3A4 [6] = biological target: T1, CYP3A4; conditions: parent and primary metabolite, CYP3A4 probe search
CYP1A2 = biological target: T2, CYP1A2 (Homo sapiens, UniProt P05177); experiment: Saliva phenotyping with caffeine probe (caffeine/paraxanthine metabolic ratio); format: in vivo
T2 sequence (P05177 1-516): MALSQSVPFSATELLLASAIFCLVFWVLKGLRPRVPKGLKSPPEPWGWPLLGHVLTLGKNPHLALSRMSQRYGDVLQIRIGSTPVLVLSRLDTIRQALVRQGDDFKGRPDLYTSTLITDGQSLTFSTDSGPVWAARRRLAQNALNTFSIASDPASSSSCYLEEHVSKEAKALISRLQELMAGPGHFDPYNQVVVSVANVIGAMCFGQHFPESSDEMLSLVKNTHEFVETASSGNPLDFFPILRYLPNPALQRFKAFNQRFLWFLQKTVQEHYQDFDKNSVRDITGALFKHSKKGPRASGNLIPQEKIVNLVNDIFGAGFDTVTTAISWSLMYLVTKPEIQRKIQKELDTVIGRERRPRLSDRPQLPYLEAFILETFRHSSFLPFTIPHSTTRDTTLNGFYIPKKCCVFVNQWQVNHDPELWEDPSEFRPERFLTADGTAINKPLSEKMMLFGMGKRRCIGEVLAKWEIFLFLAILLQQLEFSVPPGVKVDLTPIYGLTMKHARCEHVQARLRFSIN

CYP2C19 [7] = tested on: CYP2C19
CYP2C19 [8] = conditions: saliva, repeat doses of Formulation #4, per subject and tablet #
[9] = without an enteric coating or base protection; cited from earlier work
[10] = saliva, healthy adults, dextromethorphan 30 mg
[11] = Table of Exemplary Drugs, CYP3A4
[12] = Table of Exemplary Drugs, CYP1A2
[13] = saliva, healthy adults, omeprazole 20 mg
[14] = Table of Exemplary Drugs, CYP2C19
[15] = Table of Exemplary Drugs, CYP2D6

COc1ccc2c(c1)[C@]13CCCC[C@@H]1[C@H](C2)N(C)CC3 [Dextromethophan]
antimode (MR) marking poor metabolizers (CYP2D6 [1]; saliva, 6 hours after a 30 mg delayed release dose): 27.5
CYP2D6 metabolic phenotype: Extensive (CYP2D6 [1]; [10]): 83.9%
CYP2D6 metabolic phenotype: Intermediate (CYP2D6 [1]; [10]): 9.2%
CYP2D6 metabolic phenotype: Poor (CYP2D6 [1]; [10]): 4.6%
CYP2D6 metabolic phenotype: Ultra-rapid (CYP2D6 [1]; [10]): 2.3%
ORAL BIOAVAILABILITY ([2]; in vivo, po): 11%
HALF-LIFE ([3]; in vivo): 1.4 to 3.9 h
antimode (MR) marking poor metabolizers (CYP2D6 [4]; healthy Chinese subjects, 3 hours after 50 mg immediate release): 14
antimode (MR) (CYP2D6 [4]; patients with renal disease, 3 hours after 30 mg immediate release): 33

CN1CC[C@@]23CCCC[C@@H]2[C@@H]1Cc1ccc(O)cc13 [Dextrorphan]
concentrations in saliva (CYP2D6 [1]; individuals dosed with over the counter formulations): sometimes found in very low concentrations in saliva

CN(C)CCc1c[nH]c2ccc(CS(=O)(=O)N3CCCC3)cc12 [Almortriptan (Axert), Almortriptan]
ORAL BIOAVAILABILITY [2, 11]: 70%
PLASMA PROTEIN BINDING (plasma protein; [11]): 35%
METABOLISM (CYP450 enzymes; CYP isoforms listed, Table of Exemplary Drugs, CYP3A4): 2D6, MAO

Cn1c(=O)c2[nH]cnc2n(C)c1=O [Theophylline]
ORAL BIOAVAILABILITY [2, 12]: ~100%
HALF-LIFE [3, 12]: 1.5 to 9.8 h
METABOLISM (CYP450 enzymes; CYP isoforms listed, Table of Exemplary Drugs, CYP1A2): 2E1

COC(=O)[C@@H]1CC2=CC(=O)CC[C@]2(C)[C@@]23O[C@@H]2C[C@@]2(C)[C@@H](CC[C@@]24CCC(=O)O4)[C@H]13 [Eplerenone (Inspra), Eplerenone]
ORAL BIOAVAILABILITY [2, 11]: 69%
PLASMA PROTEIN BINDING (plasma protein; [11]): 50%
HALF-LIFE [3, 11]: 3 to 6 h
Tmax (CYP3A4 [5]): approximately 1.5 hours

COC(=O)[C@H]1[C@H]2[C@@H]3CC[C@@]4(CCC(=O)O4)[C@@]3(C)C[C@H]3O[C@@]23[C@@]2(C)CCC(=O)C=C2[C@@H]1O [6Beta-Hydroxy Eplerenone]
concentrations in saliva (CYP3A4 [6]): sufficiently high concentrations in saliva

Cn1c(=O)c2c(ncn2C)n(C)c1=O [Caffeine]
complaints of individuals (CYP1A2; caffeine doses of 200 mg, some individuals): nervousness and anxiety
poor metabolizers, share of subjects (CYP1A2 phenotype) (CYP1A2; saliva, healthy primarily Caucasian adults, caffeine 200 mg): 7.8%
PLASMA PROTEIN BINDING (plasma protein; [12]): 17-36% ^

COc1ccc2[nH]c([S+]([O-])Cc3ncc(C)c(OC)c3C)nc2c1 (centres unmarked) [Omeprazole]
concentrations in saliva (CYP2C19 [7]; over the counter formulations, some individuals): found in low concentrations in saliva of some individuals
CYP2C19 metabolic phenotype: Extensive (CYP2C19 [7]; [13]): 49.4%
CYP2C19 metabolic phenotype: Intermediate (CYP2C19 [7]; [13]): 31.3%
CYP2C19 metabolic phenotype: Poor (CYP2C19 [7]; [13]): 7.2%
CYP2C19 metabolic phenotype: Rapid (CYP2C19 [7]; [13]): 9.6%
CYP2C19 metabolic phenotype: Ultra-rapid (CYP2C19 [7]; [13]): 2.4%
Log10 Omeprazole/5-Hydroxy Omeprazole Metabolic Ratio (CYP2C19 [8]; time point 0.5 h): 0.9 and 2.3 (2×) and 1.4 and 2.4 and 3.5 and 3.1
Log10 Omeprazole/5-Hydroxy Omeprazole Metabolic Ratio (CYP2C19 [8]; time point 1 h): 1.2 (2×) and 0.7 (2×) and 1.5 and 1.1 and 1.3 and 1.9 and 1.4
Log10 Omeprazole/5-Hydroxy Omeprazole Metabolic Ratio (CYP2C19 [8]; time point 2 h): 0.6 (2×) and 0.5 and 1.3 (2×) and 0.9 and 0.8 and 1.1 and 1.0 and 1.2 and 0.4 and 2.0
Log10 Omeprazole/5-Hydroxy Omeprazole Metabolic Ratio (CYP2C19 [8]; time point 3 h): 0.4 (2×) and 0.7 and 0.9 (2×) and 0.8 and 0.6 (2×) and 1.3 (2×) and 0.05 and 0.2 and 1.6 and 1.0
Log10 Omeprazole/5-Hydroxy Omeprazole Metabolic Ratio (CYP2C19 [8]; time point 4 h): 0.4 (2×) and 1.2 and 1.0 and 0.6 (3×) and 0.7 and 0.9 and 0.03 and 1.3
stability in acidic gastric fluids [9]: rapidly degrades
ORAL BIOAVAILABILITY [2, 14]: 30-40%
PLASMA PROTEIN BINDING (plasma protein; [14]): 95-96% ^
HALF-LIFE [3, 14]: 0.5 to 1 h

COCCCOc1ccnc(C[S+]([O-])c2nc3ccccc3[nH]2)c1C (centres unmarked) [Rabeprazole]
ORAL BIOAVAILABILITY [2, 14]: 52%
HALF-LIFE [3, 14]: 1 to 2 h
METABOLISM (CYP450 enzymes; CYP isoforms listed, Table of Exemplary Drugs, CYP2C19): 3A

COC(=O)C1=C(C)NC(C)=C(C(=O)OC(C)C)C1c1cccc2nonc12 (centres unmarked) [Isradipine (DynaCirc), Isradipine]
ORAL BIOAVAILABILITY ([2]; cell marked CR, Table of Exemplary Drugs, CYP3A4): CR: 15-24%
ORAL BIOAVAILABILITY ([2]; cell marked IR, Table of Exemplary Drugs, CYP3A4): IR 90-95%;
PLASMA PROTEIN BINDING (plasma protein; [11]): 95%
HALF-LIFE [3, 11]: 8 h

CCCC1O[C@@H]2C[C@H]3[C@@H]4CCC5=CC(=O)C=C[C@]5(C)[C@H]4[C@@H](O)C[C@]3(C)[C@]2(C(=O)CO)O1 (some centres unmarked) [Budesonide (Entocort), Budesonide]
ORAL BIOAVAILABILITY [2, 11]: 9-21%
PLASMA PROTEIN BINDING (plasma protein; [11]): 85-90% ^
HALF-LIFE [3, 11]: 2 to 3.6 h

CC(C)CC(N(C)C)C1(c2ccc(Cl)cc2)CCC1 (centres unmarked) [Sibutramine (Meridia), Sibutramine]
ORAL BIOAVAILABILITY [2, 11]: 77%
PLASMA PROTEIN BINDING (plasma protein; [11]): 97%
HALF-LIFE [3, 11]: 1.1 h

C[C@]12C=CC(=O)N[C@@H]1CC[C@@H]1[C@@H]2CC[C@]2(C)[C@@H](C(=O)Nc3cc(C(F)(F)F)ccc3C(F)(F)F)CC[C@@H]12 [Dutasteride (Avodart), Dutasteride]
ORAL BIOAVAILABILITY [2, 11]: 60%
PLASMA PROTEIN BINDING (plasma protein; [11]): 99%
HALF-LIFE [3, 11]: 5 weeks

COc1cc2nc(N(C)CCCNC(=O)C3CCCO3)nc(N)c2cc1OC (centres unmarked) [Alfazosin (Uroxatral), Alfazosin]
ORAL BIOAVAILABILITY ([2]; in vivo, po): 49%
PLASMA PROTEIN BINDING (plasma protein; plasma): 86%
HALF-LIFE ([3]; in vivo): 10 h

CCC(=O)O[C@](Cc1ccccc1)(c1ccccc1)[C@H](C)CN(C)C [Propoxyphene (Darvon), Propoxyphene]
ORAL BIOAVAILABILITY [2, 11]: 40%
PLASMA PROTEIN BINDING (plasma protein; [11]): 78%
HALF-LIFE [3, 11]: 6 to 12 h

COc1ccc2nc([S+]([O-])Cc3ncc(CO)c(OC)c3C)[nH]c2c1 (centres unmarked) [5-hydroxy omeprazole]
concentrations in saliva (CYP2C19 [7]; in vivo): found in low concentrations in saliva of some individuals

C[C@]12CC[C@H]3[C@@H](CCC4=CC(=O)CC[C@@]43C)[C@@H]1CC[C@@H]2O [Testosterone]
ORAL BIOAVAILABILITY ([2]; in vivo, po): Varies
PLASMA PROTEIN BINDING (plasma protein; plasma): 98%
HALF-LIFE (hrs) ([3]; in vivo): varies

COc1cc(C(C)=O)ccc1OCCCN1CCC(c2noc3cc(F)ccc23)CC1 [Iloperidone]
ORAL BIOAVAILABILITY [2, 15]: 96%
PLASMA PROTEIN BINDING (plasma protein; [15]): 95%
HALF-LIFE [3, 15]: 18 to 33 h

COC(=O)C1=C(C)NC(C)=C(C(=O)OCCN(C)Cc2ccccc2)C1c1cccc([N+](=O)[O-])c1 (centres unmarked) [Nicardipine (Cardene), Nicardipine]
ORAL BIOAVAILABILITY [2, 11]: 35%
HALF-LIFE [3, 11]: 8.6 to 14.4 h
METABOLISM (CYP450 enzymes): 3A4, 2C8, 2D6

COc1ccnc(C[S+]([O-])c2nc3ccc(OC(F)F)cc3[nH]2)c1OC (centres unmarked) [Pantoprazole]
ORAL BIOAVAILABILITY [2, 14]: 77%
PLASMA PROTEIN BINDING (plasma protein; [14]): 98%
HALF-LIFE [3, 14]: 1 h

CN1C[C@H](C(=O)N[C@]2(C)O[C@@]3(O)[C@@H]4CCCN4C(=O)[C@H](Cc4ccccc4)N3C2=O)C[C@@H]2c3cccc4[nH]cc(c34)C[C@H]21 [Dihydroergotamine]
ORAL BIOAVAILABILITY ([2]; in vivo, po): <32%
PLASMA PROTEIN BINDING (plasma protein; plasma): 93%
HALF-LIFE ([3]; in vivo): 9 to 10 h

CCOC(=O)C1=C(C)NC(C)=C(C(=O)OC)C1c1cccc([N+](=O)[O-])c1 (centres unmarked) [Nitrendipine (Baypress), Nitrendipine]
ORAL BIOAVAILABILITY [2, 11]: 23%
PLASMA PROTEIN BINDING (plasma protein; [11]): 97-99% ^
HALF-LIFE [3, 11]: 2 to 24 h
